# Test results from PMC11909086, “Synthesis and characterization of novel bis(thiosemicarbazone) complexes and investigation of their acetylcholinesterase and glutathione S-transferase activities with in silico and in vitro studies” (Molecular Diversity, 2024).
# Assays:
# [1] = biological target: T1, GST (glutathione S-transferase); assay: CDNB-GSH conjugation, […] nm (Habig); format: biochemical; settings: CDNB and GSH, phosphate pH […]
# T1 construct: PDB 7BIB is only the docking model
# [2] = biological target: T1, GST (glutathione S-transferase); assay: CDNB-GSH conjugation, […] nm, Lineweaver–Burk; format: biochemical; settings: CDNB and GSH, phosphate pH […]
IC50 [1] [µM],Ki [2] [µM],SMILES
0.374,9.39 ± 3.3,"C=C(CC)C(=O)c1ccc(OCC(=O)O)c(Cl)c1Cl [Ethacrynic acid, reference compound]"
2.19,11.7 ± 5.45,"COc1ccc(NN=C2C(=NNC(N)=S)CCCC2=NNC(N)=S)cc1 [L, 2,2′-(2-(2-(4-methoxyphenyl)hydrazineylidene)cyclohexane-1,3-diylidene)bis(hydrazine-1-carbothioamide)]"
